Results reported in patent publication US6410593B1, “Antidandruff compositions” (priority 1998, dated 2002).
Read-outs that look alike come from different tables or passages of the source.

What was measured:
[1] = sebumetry index measured with the Courage-Khazka sebumeter, Test Panel of 20 individuals; conditions: 15 days
Pityrosporum ovalae = assay: minimum inhibitory doses (M.I.C.) for Pityrosporum ovalae; format: cell-based
From the text: (§1) Undecylenamidopropylbetaine (Amphoram®U from CECA S.A.) was compared with piroctone olamine (CFTA) or 1-hydroxy-4-methyl-6-(2,4,4-trimethylpentyl)-2(1H)pyridone; ethanol (1:1) salt (RN=68890-66-4), taken in its commercial form as Octopyrox® (Hoechst), at the minimum inhibitory doses (M.I.C.) for Pityrosporum ovalae, i.e., respectively, 2% and 0.2% beforehand.

dandruff = assay: antidandruff efficacy test over 15 days on a Test Panel of 20 individuals; format: in vivo; conditions: for Area occupied by dandruff, percentage of variations on D15 relative to D1 / Dandruff removal index, percentage of variations on D15 relative to D1: products at their M.I.C. (2% and 0.2%)
From the text: as §1

[2] = background statement; cited from earlier work
[3] = in vivo

| Compound | Sebumetry index, percentage of variation on D15 relative to D1 [1] [%] | minimum inhibitory doses (M.I.C.) for Pityrosporum ovalae (Pityrosporum ovalae) [%] | state of dandruff (decrease in the area occupied and increase in the dandruff removal index) (dandruff) | Area occupied by dandruff, percentage of variations on D15 relative to D1 (dandruff) [%] | Dandruff removal index, percentage of variations on D15 relative to D1 (dandruff) [%] | solubility in water [2] | Sebumetry index, percentage of variation on D15 relative to D1 [3] [%] |
| --- | --- | --- | --- | --- | --- | --- | --- |
| CCO.Cc1cc(CC(C)CC(C)(C)C)n(O)c(=O)c1 (stereo not drawn) [Octopyrox, 1-hydroxy-4-methyl-6-(2,4,4-trimethylpentyl)-2(1H)pyridone; ethanol (1:1) salt] | −4 | 0.2 | remained stable | −7 | −5 |  |  |
| CC(C)(C)C(=O)C(Oc1ccc(Cl)cc1)n1ccnc1 (stereo not drawn) [climbazole] |  |  |  |  |  | water-insoluble |  |
| N-(carboxymethyl)-N,N-dimethyl-3-[(1-oxoundecenyl)amino]-1-propanaminium hydroxide [Amphoram U] |  | 2 | 30 to 40% | −29 | −36 |  | −7 |
| zinc pyrithione |  |  |  |  |  | water-insoluble |  |
